{"source": "patent US9095624B2", "about": "(priority 2011, dated 2015)", "key": {"[1]": {"test_system": "C57Black/6J mice with B16-F1 melanoma", "assay": "Photodynamic therapy, B16-F1 melanoma", "assay_type": "in vivo", "method": "(§1) In order to evaluate the potential utility of MTP for enhancing the therapeutic efficacy of a drug that requires localization within the cell nucleus to be effective, photodynamic therapy (PDT) studies were performed in three different murine subcutaneous tumor models, with PDT initiated three hours after photosensitizer (PS) injection. The comparative efficacy of photodynamic therapy with bacteriochlorin p conjugated with DTox-HMP-NLS-αMSH MTP and free bacteriochlorin p is reported in FIGS. 11A-D.\nThe first experiment was performed in C57Black/6J mice with B16-F1 melanoma. FIG. 11A reports tumor growth, mean±SEM, with injection and illumination cycles indicated with arrows. The average tumor volumes are shown up to the last day when all animals were alive in a group. FIG. 11B provides the Kaplan-Meier survival curve. […] The median survival for mice receiving PS-MTP conjugate was 32.0±1.3 days compared with 17.0±1.5 days for the control group and 20.0±5.5 days for the bacteriochlorin group (FIG. 11B). The difference in survival between PS-MTP and each of two control groups was significant (p<0.01)."}, "[2]": {"test_system": "DBA/2 mice with Cloudman S91 melanoma", "assay": "Photodynamic therapy, Cloudman S91 melanoma", "assay_type": "in vivo", "details": "PDT", "method": "as §1\nThe second experiment utilized DBA/2 mice with Cloudman S91 melanoma. FIG. 11C reports tumor growth, mean±SEM with the injection and illumination cycles being indicated with arrows. The average tumor volumes are shown up to the last day when all animals were alive in a group. FIG. 11D provides the Kaplan-Meier survival curve. […] The median survival for mice receiving PS-MTP conjugate was 56.0±18.6 days compared with 21.0±0.7 days for the control group and 31.0±1.3 days for the bacteriochlorin group (FIG. 11D)."}, "[3]": {"test_system": "Balb/c ByJIco-nu/nu mice with A431 human epidermoid carcinoma xenografts", "details": "mouse, in vivo"}}}
{"compound": "bacteriochlorin p", "values": [{"measurement": "median survival", "setting": "[1]; PDT", "result": "20.0 ± 5.5", "unit": "days"}, {"measurement": "inhibition in tumor growth", "setting": "[1]; PDT three hours after photosensitizer injection", "result": "no significant effect"}, {"measurement": "median survival", "setting": "[2]", "result": "31.0 ± 1.3", "unit": "days"}]}
{"compound": "C=Cc1c(C)c2cc3nc(c(CC(=O)O)c4[nH]c(cc5nc(cc1[nH]2)C(C)=C5CC)c(C)c4C(=O)O)[C@@H](CCC(=O)O)[C@@H]3C", "note": "[chlorin e6]", "values": [{"measurement": "animals remaining alive at the end of the observation period", "setting": "[3]", "result": 20, "unit": "%"}]}
